Experimental data as given in patent US20080200392A1, “Methods for Treating Parkinson's Disease” (priority 2005, published 2008).
No end group written: not given here.

What was measured:
[1] = system: human C1q; test: Reverse ELISA: inhibition of PAP immune complex binding to C1q coated plates; details: for OD 405 nm: PAP pre-incubated 1 h with peptide or C1q, 30 min on C1q coated plates, lower OD = more inhibition, positive control 2.355; for inhibition of C1q binding, ranking in words: among the peptides of Table 1
Text: (§1) For this reason, a “reverse ELISA” technique was used to assess binding of the Fc region to ligands that bind to immune complexed IgG Fc. In a reverse ELISA, the enzyme (e.g., HRP) is not covalently conjugated to the Fc portion of the secondary antibody. Rather, a preformed immune complex of peroxidase-rabbit (or mouse) anti-peroxidase IgG (“PAP” complex) is used. […] In these experiments, an Fc CH2-CH3 cleft binding ligand (e.g., purified human C1q) was bound to microwell plates. In the absence of competitor, PAP complexes bound to the immobilized ligand and the reaction between HRP and its substrate produced a signal. This signal was reduced by polypeptides and compounds provided herein that inhibited PAP binding to the immobilized ligand.
PAP complexes were formed mixing 2 μl of rabbit anti-peroxidase (Sigma Chemicals, St. Louis, Mo.) with 50 μl of peroxidase (Sigma-Aldrich, St. Louis, Mo.) in 1 ml distilled water. PAP (100 μl) were pre-incubated with 100 μl of peptide for one hour, 100 μl were pre-incubated with 100 μl of peptide or human C1q (Quidel Corp., San Diego, Calif.) for one hour. The C1q/PAP and peptide/PAP mixtures (100 μl) were incubated with C1q coated plates for 30 minutes. After washing, plates were incubated with ATBS (Quidel Corp.) for 15 minutes and read at 405 nm.

[2] = system: FcγIIb; test: Reverse ELISA: inhibition of PAP immune complex binding to FcγIIb coated plates; details: PAP pre-incubated 1 h with peptide, 1 h on FcγIIb coated plates; lower = more inhibition; positive control 1.394
Text: as §1
(§2) Once the reverse ELISA protocol was established using the C1q assay, the assay was redesigned using FcγIIa, FcγIIb, and FcγIII in place of C1q. Highly purified FcγIIa, FcγIIb and FcγIII were immunoabsorbed onto plastic microwells. After optimizing the FcγR reverse ELISA system, simple competitive inhibition experiments using polypeptides provided herein were conducted to investigate their ability to inhibit binding of immune complexes to purified FcγR.
(§3) Falcon microtiter plates were coated with 1:10 dilutions of highly purified FcγIIa, FcγIIb and FcγIII and incubated for 24 hours. The plates were washed and then blocked with 5×BSA blocking solution (Alpha Diagnostic International, San Antonio, Tex.) for 24 hours. PAP immune complexes were formed as described above. PAP (100 μl) were pre-incubated with 100 μl of peptide for one hour. PAP/peptide mixtures were added to the FcγR coated plates and incubated for one hour. After washing, plates were incubated with ABTS substrate for 15 minutes and read at 405 nm.

[3] = system: FcγIIa; test: Reverse ELISA: inhibition of PAP immune complex binding to FcγIIa coated plates; details: PAP pre-incubated 1 h with peptide, 1 h on FcγIIa coated plates; lower = more inhibition; positive control 1.599
Text: as §1, §2, §3

[4] = system: FcγIII; test: Reverse ELISA: inhibition of PAP immune complex binding to FcγIII coated plates; details: PAP pre-incubated 1 h with peptide, 1 h on FcγIII coated plates; lower = more inhibition; positive control 1.588
Text: as §1, §2, §3

[5] = system: human wt α-synuclein; test: Reverse ELISA: inhibition of immune complexed IgG (PAP) binding to wt α-synuclein; details: for Wt α-synuclein (read at 405 nm): PAP pre-incubated 1 h with peptide
Protocol: PAP complexes were formed mixing 2 μl of rabbit anti-peroxidase (Sigma) with 50 μl of peroxidase (Sigma) in 1 ml distilled water. PAP (100 μl) were pre-incubated with 100 μl of peptide for one hour. Control PAP (200 μl) also was incubated for one hour. 100 μl of either PAP or PAP/peptide was added to Falcon microtiter plates that had been coated for 24 or 48 hours with 167 μg/ml human wt α-synuclein (Sigma-Aldrich), and the plates were incubated for 60 minutes. After washing, plates were incubated with ATBS for 30 minutes and then read at 405 nm.

[6] = target: IgG Fc (Homo sapiens, UniProt P01857); test: Alanine substitution effect on binding of SEQ ID NO:16 to IgG Fc; details: alanine substitution of SEQ ID NO:16 Val-13 or Trp-14
Text: The indole ring of Trp-14 in SEQ ID NO:16 has a hydrophobic interaction with IgG Fc His-435. SEQ ID NO:16 also has hydrophobic packing with IgG Fc Met-252, Ile-253, Ser-254, His-435, and Tyr-436. Alanine substitution of IgG Fc Asn-434, His-435, or Tyr-436 disrupts binding (ΔΔG≧1.5 kcal/mol). Similarly, alanine substitution of SEQ ID NO:16 Val-13 or Trp-14 results in disruption of binding (ΔΔG≧2.0 kcal/mol).

[7] = system: FcR; test: FcγR reverse ELISA, overall statement on FcR binding to PAP; details: among the peptides of Table 2
Protocol: as §2, §3

[8] = target: highly purified FcγIIb; test: reverse ELISA: PAP without competitor on FcγIIb-coated plate
[9] = target: human wt α-synuclein (Sigma-Aldrich) (human) (UniProt P37840); test: reverse ELISA: PAP without competitor on α-synuclein-coated plate (taken as the 24 h coating)
[10] = target: highly purified FcγIII; test: reverse ELISA: PAP without competitor on FcγIII-coated plate
[11] = target: highly purified FcγIIa; test: reverse ELISA: PAP without competitor on FcγIIa-coated plate
[12] = target: preformed immune complex of peroxidase-rabbit anti-peroxidase IgG (PAP complex) (rabbit; horseradish) (UniProt P00433); test: reverse ELISA competition: PAP pre-incubated with peptide, then on FcγIII-coated plate (competitor: immobilized FcγIII)
[13] = target: preformed immune complex of peroxidase-rabbit anti-peroxidase IgG (PAP complex) (rabbit; horseradish) (UniProt P00433); test: reverse ELISA competition: PAP pre-incubated with peptide, then on C1q-coated plate; signal is PAP bound to C1q (competitor: immobilized human C1q)
[14] = target: preformed immune complex of peroxidase-rabbit anti-peroxidase IgG (PAP complex) (rabbit; horseradish) (UniProt P00433); test: reverse ELISA competition: PAP pre-incubated with peptide, then on FcγIIa-coated plate (competitor: immobilized FcγIIa)
[15] = target: preformed immune complex of peroxidase-rabbit anti-peroxidase IgG (PAP complex) (rabbit; horseradish) (UniProt P00433); test: reverse ELISA competition: PAP pre-incubated with peptide, then on FcγIIb-coated plate (competitor: immobilized FcγIIb)
[16] = target: preformed immune complex of peroxidase-rabbit anti-peroxidase IgG (PAP complex) (rabbit; horseradish) (UniProt P00433); test: reverse ELISA competition: PAP pre-incubated with peptide, then on plate coated 48 h with human wt α-synuclein (competitor: immobilized α-synuclein)
[17] = target: preformed immune complex of peroxidase-rabbit anti-peroxidase IgG (PAP complex) (rabbit; horseradish) (UniProt P00433); test: reverse ELISA competition: PAP pre-incubated with peptide, then on plate coated 24 h with human wt α-synuclein (competitor: immobilized α-synuclein)
[18] = plates coated 24 h with 167 μg/ml α-synuclein, positive control 1.433
[19] = plates coated 48 h with 167 μg/ml α-synuclein, positive control […]

Sequence of preformed immune complex of peroxidase-rabbit anti-peroxidase IgG (PAP complex) (rabbit; horseradish) (P00433 31-338, one chain of several): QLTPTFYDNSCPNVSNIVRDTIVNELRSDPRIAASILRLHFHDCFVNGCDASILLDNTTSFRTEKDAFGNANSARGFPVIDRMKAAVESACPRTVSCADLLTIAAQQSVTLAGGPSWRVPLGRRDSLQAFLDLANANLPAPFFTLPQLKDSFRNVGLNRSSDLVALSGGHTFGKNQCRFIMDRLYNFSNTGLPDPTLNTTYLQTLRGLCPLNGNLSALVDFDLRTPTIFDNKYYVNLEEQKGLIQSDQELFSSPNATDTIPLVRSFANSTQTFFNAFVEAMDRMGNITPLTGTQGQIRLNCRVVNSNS
Sequence of preformed immune complex of peroxidase-rabbit anti-peroxidase IgG (PAP complex) (P00433 31-338, one chain of several): as above
Sequence of highly purified FcγIIa (P12318 34-317): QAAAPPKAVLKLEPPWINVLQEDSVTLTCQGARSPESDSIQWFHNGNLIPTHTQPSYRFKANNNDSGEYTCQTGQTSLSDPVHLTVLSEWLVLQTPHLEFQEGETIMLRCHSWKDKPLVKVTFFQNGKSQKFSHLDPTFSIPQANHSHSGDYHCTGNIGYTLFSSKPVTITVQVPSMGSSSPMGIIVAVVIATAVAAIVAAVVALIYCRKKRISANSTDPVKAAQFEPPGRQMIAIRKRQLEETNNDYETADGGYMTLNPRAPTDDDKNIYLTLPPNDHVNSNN

| Molecule | OD 405 nm [1] | FcγIIb (read at 405 nm) [2] | FcγIIa (read at 405 nm) [3] | FcγIII (read at 405 nm) [4] | OD 405 nm [12] | OD 405 nm [13] | OD 405 nm [14] | OD 405 nm [15] | further results |
| --- | --- | --- | --- | --- | --- | --- | --- | --- | --- |
| APPCAFHLGELVWCT (not fully specified; cysteine pairing not given here) | 0.983 | 0.380 | 0.605 | 0.880 |  |  |  |  |  |
| APPCARHLGELVWCT | 0.567 | 0.768 | 0.956 | 0.709 |  |  |  |  | inhibition of C1q binding, ranking in words [1]: next best result |
| APPCAWHLGELVWCT | 1.148 | 0.562 | 0.658 | 0.530 |  |  |  |  |  |
| APPDCAWHLGELVWCT | 0.389 | 0.496 | 0.509 | 0.670 |  |  |  |  | inhibition of C1q binding, ranking in words [1]: greatest inhibition of C1q binding, almost equaling C1q itself; inhibition of α-synuclein binding to PAP, ranking in words ([5]; among the peptides of Table 3): greatest inhibition of α-synuclein binding to PAP; Wt α-synuclein (read at 405 nm) [5, 18]: 0.088; Wt α-synuclein (read at 405 nm) [5, 19]: 0.136; ΔΔG, disruption of binding [6]: ≥ 2.0 kcal/mol; inhibition of FcR binding to PAP, ranking in words [7]: greatest inhibition of FcR binding to PAP |
| DCAFHLGELVWCT | 0.859 | 0.510 | 0.660 | 0.810 |  |  |  |  |  |
| DCAWHLGELVWCT | 1.100 | 0.532 | 0.561 | 0.741 |  |  |  |  | Wt α-synuclein (read at 405 nm) [5, 18]: 0.111; Wt α-synuclein (read at 405 nm) [5, 19]: 0.152 |
| preformed immune complex of peroxidase-rabbit anti-peroxidase IgG (PAP complex) (from UniProt P00433 31-338) (antibody) |  |  |  |  |  |  |  |  | OD 405 nm [8]: 1.39 OD 405 nm; OD 405 nm [9]: 1.43 OD 405 nm; OD 405 nm [10]: 1.59 OD 405 nm; OD 405 nm [11]: 1.6 OD 405 nm |
| APPCARHLGELVWCT (not fully specified; cysteine pairing not given here) [… (SEQ ID NO:14)] |  |  |  |  | 0.709 OD 405 nm | 0.567 OD 405 nm | 0.956 OD 405 nm | 0.768 OD 405 nm |  |
| DCAFHLGELVWCT [… (SEQ ID NO:3)] |  |  |  |  | 0.81 OD 405 nm | 0.859 OD 405 nm | 0.66 OD 405 nm | 0.51 OD 405 nm |  |
| APPDCAWHLGELVWCT [… (SEQ ID NO:16)] |  |  |  |  | 0.67 OD 405 nm | 0.389 OD 405 nm | 0.509 OD 405 nm | 0.496 OD 405 nm | OD 405 nm [16]: 0.136 OD 405 nm; OD 405 nm [17]: 0.088 OD 405 nm |
| APPCAFHLGELVWCT (not fully specified; cysteine pairing not given here) [… (SEQ ID NO:15)] |  |  |  |  | 0.88 OD 405 nm | 0.983 OD 405 nm | 0.605 OD 405 nm | 0.38 OD 405 nm |  |
| APPCAWHLGELVWCT (not fully specified; cysteine pairing not given here) [… (SEQ ID NO:13)] |  |  |  |  | 0.53 OD 405 nm | 1.15 OD 405 nm | 0.658 OD 405 nm | 0.562 OD 405 nm |  |
